In US11396511B2, “Substituted 9,13b-dihydro-1H-dibenzo[c,f]imidazo[1,5-a]azepin-3-ylbenzamides as anti-inflammatory and analgesic agents” (FRONTBIO CO., LTD., priority 2017, dated 2022):

Columns and labels:
[1] = test system: Raw 264.7 cells; test: Measurement of NO production in LPS-stimulated Raw 264.7 cells; assay type: cell-based; conditions: for inhibition at 12.5 µM / inhibition at 25 µM / inhibition at 50 µM / inhibition at 100 µM: Mus musculus, RAW264.7, LPS 100 ng/ml, 24 h
Method: Raw 264.7 cells were plated in a 96-well cell culture plate (50,000 cells/well). Lipopolysaccharide (LPS) was diluted to 100 ng/ml and the dilution was added to the cell culture media The LPS stimulus was applied for 24 h to induce the activity of the Raw 264.7 cells and supernatants (50 μl each) obtained from the 96-well cell culture plate were plated in a new plate. 50 μl of a sulfanilamide solution was added and the reaction was allowed to proceed for 10 min. 50 μl of a NED solution was added and the reaction was allowed to proceed for 10 min. The amount of NO produced from the cells in the cell culture media was determined by measuring the absorbance at a wavelength of 540 nm.

[2] = test system: Raw 264.7 cells; test: Cell viability measurement (MTS); assay type: cell-based
Method: Raw 264.7 cells were plated in a 96-well cell culture plate (50,000 cells/well). The cell culture media were removed from the 96-well cell culture plate. 100 μl of MTS reagent (CellTiter 96 AQueous One Solution Cell Proliferation Assay, Promega) was added to each well and the reaction was allowed to proceed at 37° C. for 20 min. After the reaction was finished, the cell viability were determined by measuring the absorbance at a wavelength of 490 nm.

SMILES | inhibition at 12.5 µM [1] | inhibition at 25 µM [1] | inhibition at 50 µM [1] | inhibition at 100 µM ([1]; 100 μM) | reduction of NO production (in words) ([1]; together with LPS (100 ng/ml)) | cell toxicity (cell viability, MTS) [2] | reduction of NO production (in words) ([1]; 100 μM, LPS (100 ng/ml))
CC(=O)Oc1ccccc1C(=O)O [Aspirin, acetylsalicylic acid (aspirin)] | 0% | 0% | 9.29% | 12.4% | less effective in reducing the production of NO | no cell toxicities were observed | 
O=C(O)c1ccccc1O [Salicylic acid] | 0% | 1.27% | 7.18% | 15.6% | less effective in reducing the production of NO | no cell toxicities were observed | 
NC1=NCC2c3ccccc3Cc3ccccc3N12 (stereo not drawn) [Epinastine, epinastine] | 0% | 5.48% | 18.7% | 33.4% |  | no cell toxicities were observed | found to reduce the production of NO
